# Bridge positions count the residues as written; N and C are the ends. Square brackets hold non-standard residues; d marks the D form. Peptide text beside a SMILES is read from it. Hyp = O=C(O)[C@@H]1C[C@@H](O)CN1; Cit = NC(=O)NCCC[C@H](N)C(=O)O
# Key:
# [1] = molecular target: hAM1 receptor (Homo sapiens, UniProt O60895+Q16602); assay: cAMP assay for in vitro receptor activation, hAM1-R; format: cell-based; conditions: cAMP assay, hAM1 receptor; read-out: hAM1R EC50
# Method in brief: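 A subcloned monoclonal line stably expressing hAM1 receptor is thawed and plated at 8000 cells/well. The assay buffer is DPBS with 0.05% casein and 0.5 mM IBMX, and receptor activation is followed by cAMP levels.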
# [2] = molecular target: T1, hAMY3 receptor (Homo sapiens, UniProt O60896+P30988); assay: cAMP assay for in vitro receptor activation, hAMY3-R; format: cell-based; conditions: cAMP assay, hAMY3 receptor; read-out: hAMY3R EC50
# T1 sequence (P30988 25-474): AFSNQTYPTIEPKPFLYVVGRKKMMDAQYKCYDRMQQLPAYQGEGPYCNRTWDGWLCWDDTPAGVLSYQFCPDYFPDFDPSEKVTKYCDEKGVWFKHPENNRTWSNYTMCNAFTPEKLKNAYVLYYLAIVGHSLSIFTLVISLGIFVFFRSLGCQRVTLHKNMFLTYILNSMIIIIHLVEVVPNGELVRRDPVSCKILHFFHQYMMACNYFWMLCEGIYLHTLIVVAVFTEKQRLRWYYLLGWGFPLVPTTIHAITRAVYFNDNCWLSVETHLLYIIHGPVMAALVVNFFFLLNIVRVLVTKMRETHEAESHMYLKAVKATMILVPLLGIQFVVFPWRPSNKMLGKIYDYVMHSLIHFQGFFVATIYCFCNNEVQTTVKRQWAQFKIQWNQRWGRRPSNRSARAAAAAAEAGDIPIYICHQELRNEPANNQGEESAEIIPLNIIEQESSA
# T1 sequence (O60896 24-148 partner): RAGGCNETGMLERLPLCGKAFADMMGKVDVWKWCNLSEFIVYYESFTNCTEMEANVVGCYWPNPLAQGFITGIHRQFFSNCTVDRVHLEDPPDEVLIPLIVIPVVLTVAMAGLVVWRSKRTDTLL
# Method in brief: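 Read-out is TR-FRET cAMP signal, recorded one hour after reagent addition, following 30 min room-temperature stimulation of stable hAMY3 cells with graded compound doses in casein/IBMX (0.5 mM) buffer.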
# [3] = Physical stability of peptide analogues (Thioflavin T fibrillation); format: physicochemical; conditions: maximum ThT signal normalized between hAMY maximum and buffer background; 40° C., shaking, four days; pH 7 per table title
# Method in brief: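 Samples are stressed at 40 °C for four days, being shaken at 700 rpm before each 10-min fluorescence reading of 4 μM Thioflavin T. Buffers were pH 4 acetate or pH 7 phosphate. Reported values are smoothed maximum ThT signals as a percentage of the hAMY-to-background range.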
# Sequence of hAM1 receptor (Q16602 23-461): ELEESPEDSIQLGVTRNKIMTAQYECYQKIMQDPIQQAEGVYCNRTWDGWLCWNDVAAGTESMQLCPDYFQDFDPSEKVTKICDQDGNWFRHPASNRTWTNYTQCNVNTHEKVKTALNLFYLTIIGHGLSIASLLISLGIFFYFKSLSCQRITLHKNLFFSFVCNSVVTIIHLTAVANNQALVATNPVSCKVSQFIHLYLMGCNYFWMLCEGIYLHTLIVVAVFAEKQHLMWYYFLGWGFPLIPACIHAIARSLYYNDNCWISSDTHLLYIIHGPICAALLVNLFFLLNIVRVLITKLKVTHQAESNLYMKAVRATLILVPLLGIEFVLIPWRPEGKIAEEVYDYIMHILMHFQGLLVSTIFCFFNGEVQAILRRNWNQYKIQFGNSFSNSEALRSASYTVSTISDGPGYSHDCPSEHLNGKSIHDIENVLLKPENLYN
# Sequence of hAM1 receptor (O60895 43-175 partner): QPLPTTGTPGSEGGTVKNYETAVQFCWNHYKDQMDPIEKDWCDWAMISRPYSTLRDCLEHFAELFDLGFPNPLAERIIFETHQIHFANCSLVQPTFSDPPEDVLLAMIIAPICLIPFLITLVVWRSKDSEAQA
Compound,EC50 [1],EC50 [2],Max ThT signal (%) [3]
CC[C@H](C)[C@H](NC(=O)[C@H](CCC(N)=O)NC(=O)[C@H](Cc1c[nH]cn1)NC(=O)[C@H](C)NC(=O)[C@H](CC(C)C)NC(=O)[C@H](CCCNC(N)=O)NC(=O)[C@H](CCC(N)=O)NC(=O)[C@@H](NC(=O)[C@@H](NC(=O)[C@@H]1CSSC[C@H](NC(=O)CN)C(=O)N[C@@H](CCCNC(=N)N)C(=O)N[C@@H]([C@@H](C)O)C(=O)NCC(=O)N[C@@H]([C@@H](C)O)C(=O)N1)[C@@H](C)O)C(C)C)C(=O)N[C@@H](Cc1ccc(O)cc1)C(=O)N[C@@H](CCC(N)=O)C(=O)N[C@@H](Cc1ccccc1)C(=O)N[C@H](C(=O)N[C@@H](CC(=O)O)C(=O)N[C@@H](CCCCN)C(=O)N[C@@H](CC(=O)O)C(=O)N[C@@H](CCCCN)C(=O)N[C@@H](CC(=O)O)C(=O)N[C@@H](CC(N)=O)C(=O)N[C@H](C(=O)N[C@@H](C)C(=O)N1CCC[C@H]1C(=O)N[C@@H](CCCNC(=N)N)C(=O)N[C@H](C(=O)N[C@@H](CC(N)=O)C(=O)N[C@H](C(=O)NCC(=O)N1CCC[C@H]1C(=O)N[C@@H](CCC(N)=O)C(=O)NCC(=O)N1C[C@H](O)C[C@H]1C(N)=O)C(C)C)[C@@H](C)O)C(C)C)[C@@H](C)O [compound 261] (H-GCRTGTCTVQ[Cit]LAHQIYQFTDKDKDNVAPRTNVGPQG[Hyp]-NH2; disulfide 2-7; N-terminus assumed),> 5000 nM,0.018 nM,22.650%
CC[C@H](C)[C@H](NC(=O)[C@H](CCC(N)=O)NC(=O)[C@H](Cc1c[nH]cn1)NC(=O)[C@H](C)NC(=O)[C@H](CC(C)C)NC(=O)[C@H](CCCNC(N)=O)NC(=O)[C@H](CCC(N)=O)NC(=O)[C@@H](NC(=O)[C@@H](NC(=O)[C@@H]1CSSC[C@H](NC(=O)[C@@H](N)CCCCN)C(=O)N[C@@H](CC(N)=O)C(=O)N[C@@H]([C@@H](C)O)C(=O)N[C@@H](C)C(=O)N[C@@H]([C@@H](C)O)C(=O)N1)[C@@H](C)O)C(C)C)C(=O)N[C@@H](Cc1ccc(O)cc1)C(=O)N[C@@H](CCC(N)=O)C(=O)N[C@@H](Cc1ccccc1)C(=O)N[C@H](C(=O)N[C@@H](CC(=O)O)C(=O)N[C@@H](CCCCN)C(=O)N[C@@H](CC(=O)O)C(=O)N[C@@H](CCCCN)C(=O)N[C@@H](CC(=O)O)C(=O)N[C@@H](CC(N)=O)C(=O)N[C@H](C(=O)N[C@@H](C)C(=O)N[C@@H](C)C(=O)N1CCC[C@H]1C(=O)N[C@H](C(=O)N[C@@H](CC(N)=O)C(=O)N[C@H](C(=O)NCC(=O)N[C@@H](CO)C(=O)N[C@@H](CC(N)=O)C(=O)NCC(=O)N1C[C@H](O)C[C@H]1C(N)=O)C(C)C)[C@@H](C)O)C(C)C)[C@@H](C)O [compound 262] (H-KCNTATCTVQ[Cit]LAHQIYQFTDKDKDNVAAPTNVGSNG[Hyp]-NH2; disulfide 2-7; N-terminus assumed),> 5000 nM,0.014 nM,9.550%
CC[C@H](C)[C@H](NC(=O)[C@H](CCC(N)=O)NC(=O)[C@H](Cc1c[nH]cn1)NC(=O)[C@H](C)NC(=O)[C@H](CC(C)C)NC(=O)[C@H](CCCNC(N)=O)NC(=O)[C@H](CCC(N)=O)NC(=O)[C@@H](NC(=O)[C@@H](NC(=O)[C@@H]1CSSC[C@H](NC(=O)[C@@H](N)CCCCN)C(=O)N[C@@H](CC(N)=O)C(=O)N[C@@H]([C@@H](C)O)C(=O)N[C@@H](C)C(=O)N[C@@H]([C@@H](C)O)C(=O)N1)[C@@H](C)O)C(C)C)C(=O)N[C@@H](Cc1ccc(O)cc1)C(=O)N[C@@H](CCC(N)=O)C(=O)N[C@@H](Cc1ccccc1)C(=O)N[C@@H](CC(=O)O)C(=O)N[C@@H](CCCCN)C(=O)N[C@@H](CC(=O)O)C(=O)N[C@@H](CCCCN)C(=O)N[C@@H](CC(=O)O)C(=O)N[C@@H](CC(N)=O)C(=O)N[C@H](C(=O)N[C@@H](C)C(=O)N1CCC[C@H]1C(=O)N1CCC[C@H]1C(=O)N[C@H](C(=O)N[C@@H](CC(N)=O)C(=O)N[C@H](C(=O)NCC(=O)N[C@@H](CO)C(=O)N[C@@H](CC(N)=O)C(=O)NCC(=O)N1C[C@H](O)C[C@H]1C(N)=O)C(C)C)[C@@H](C)O)C(C)C [compound 265] (H-KCNTATCTVQ[Cit]LAHQIYQFDKDKDNVAPPTNVGSNG[Hyp]-NH2; disulfide 2-7; N-terminus assumed),> 5000 nM,0.03 nM,26.550%

# More lines, now with the values ahead:
EC50 [1],EC50 [2],Max ThT signal (%) [3],Compound
> 5000 nM,0.007 nM,25.000%,CC[C@H](C)[C@H](NC(=O)[C@H](CCC(N)=O)NC(=O)[C@H](Cc1c[nH]cn1)NC(=O)[C@H](C)NC(=O)[C@H](CC(C)C)NC(=O)[C@H](CCCNC(N)=O)NC(=O)[C@H](CCC(N)=O)NC(=O)[C@@H](NC(=O)[C@@H](NC(=O)[C@@H]1CSSC[C@H](NC(=O)[C@@H](N)CCCCN)C(=O)N[C@@H](CC(N)=O)C(=O)N[C@@H]([C@@H](C)O)C(=O)N[C@@H](C)C(=O)N[C@@H]([C@@H](C)O)C(=O)N1)[C@@H](C)O)C(C)C)C(=O)N[C@@H](Cc1ccc(O)cc1)C(=O)N[C@@H](CCC(N)=O)C(=O)N[C@@H](Cc1ccccc1)C(=O)N[C@H](C(=O)N[C@@H](CC(=O)O)C(=O)N[C@@H](CCCCN)C(=O)N[C@@H](CC(=O)O)C(=O)N[C@@H](CCCCN)C(=O)N[C@@H](CC(=O)O)C(=O)N[C@@H](CC(N)=O)C(=O)N[C@H](C(=O)N[C@@H](C)C(=O)N1CCC[C@H]1C(=O)N[C@H](C(=O)N[C@@H](CC(N)=O)C(=O)N[C@H](C(=O)NCC(=O)N[C@@H](CO)C(=O)N[C@@H](CC(N)=O)C(=O)NCC(=O)N1C[C@H](O)C[C@H]1C(N)=O)C(C)C)[C@@H](C)O)C(C)C)[C@@H](C)O [compound 255] (H-KCNTATCTVQ[Cit]LAHQIYQFTDKDKDNVAPTNVGSNG[Hyp]-NH2; disulfide 2-7; N-terminus assumed)
> 5000 nM,0.007 nM,18.650%,CC[C@H](C)[C@H](NC(=O)[C@H](CCC(N)=O)NC(=O)[C@H](CCC(=O)O)NC(=O)[C@H](C)NC(=O)[C@H](CC(C)C)NC(=O)[C@H](CCCNC(N)=O)NC(=O)[C@H](C)NC(=O)[C@@H](NC(=O)[C@@H](NC(=O)[C@@H]1CSSC[C@H](NC(=O)[C@@H](N)CCCNC(=N)N)C(=O)N[C@@H](CCC(N)=O)C(=O)N[C@@H]([C@@H](C)O)C(=O)N[C@@H](CO)C(=O)N[C@@H]([C@@H](C)O)C(=O)N1)[C@@H](C)O)C(C)C)C(=O)N[C@@H](C)C(=O)N[C@@H](CCC(N)=O)C(=O)N[C@@H](Cc1ccc(O)cc1)C(=O)N[C@H](C(=O)N[C@@H](CC(=O)O)C(=O)N[C@@H](CCCCN)C(=O)N[C@@H](CC(=O)O)C(=O)N[C@@H](CCCCN)C(=O)N[C@@H](CC(=O)O)C(=O)N[C@@H](CCC(N)=O)C(=O)N[C@H](C(=O)N[C@@H](C)C(=O)N1CCC[C@H]1C(=O)N1CCC[C@H]1C(=O)N[C@H](C(=O)N[C@@H](CC(N)=O)C(=O)N[C@H](C(=O)NCC(=O)N[C@@H](CO)C(=O)N[C@@H](CC(N)=O)C(=O)N[C@@H](CO)C(=O)N1C[C@H](O)C[C@H]1C(N)=O)C(C)C)[C@@H](C)O)C(C)C)[C@@H](C)O [compound 256] (H-RCQTSTCTVA[Cit]LAEQIAQYTDKDKDQVAPPTNVGSNS[Hyp]-NH2; disulfide 2-7; N-terminus assumed)
> 5000 nM,0.01 nM,32.700%,CC[C@H](C)[C@H](NC(=O)[C@H](CCC(N)=O)NC(=O)[C@H](Cc1c[nH]cn1)NC(=O)[C@H](C)NC(=O)[C@H](CC(C)C)NC(=O)[C@H](CCCNC(N)=O)NC(=O)[C@H](CCC(N)=O)NC(=O)[C@@H](NC(=O)[C@@H](NC(=O)[C@@H]1CSSC[C@H](NC(=O)[C@@H](N)CCCCN)C(=O)N[C@@H](CC(N)=O)C(=O)N[C@@H]([C@@H](C)O)C(=O)N[C@@H](C)C(=O)N[C@@H]([C@@H](C)O)C(=O)N1)[C@@H](C)O)C(C)C)C(=O)N[C@@H](Cc1ccc(O)cc1)C(=O)N[C@@H](CCC(N)=O)C(=O)N[C@@H](Cc1ccccc1)C(=O)N[C@H](C(=O)N[C@@H](CC(=O)O)C(=O)N[C@@H](CCCCN)C(=O)N[C@@H](C)C(=O)N[C@@H](CCCCN)C(=O)N[C@@H](CC(=O)O)C(=O)N[C@@H](CC(N)=O)C(=O)N[C@H](C(=O)N[C@@H](C)C(=O)N1CCC[C@H]1C(=O)N1CCC[C@H]1C(=O)N[C@H](C(=O)N[C@@H](CC(N)=O)C(=O)N[C@H](C(=O)NCC(=O)N[C@@H](CO)C(=O)N[C@@H](CC(N)=O)C(=O)NCC(=O)N1C[C@H](O)C[C@H]1C(N)=O)C(C)C)[C@@H](C)O)C(C)C)[C@@H](C)O [compound 258] (H-KCNTATCTVQ[Cit]LAHQIYQFTDKAKDNVAPPTNVGSNG[Hyp]-NH2; disulfide 2-7; N-terminus assumed)

# From patent US12139520B2 (priority 2020, dated 2024)
